The record followed here is patent publication US20250250265A1, “BENZOTHIAZOLE-PHENYLSULFONYL-PIPERIDINE ANALOGS AS ACTIVATORS OF NACYLPHOSPHATIDYLETHANOLAMINE HYDROLYZING PHOSPHOLIPASE D” (priority 2022, published 2025).

One experiment addresses T1, recombinant mouse NAPE-PLD (Mus musculus, UniProt Q8BH82).
T1 construct: hexahistidine (His6) (C); made in house; host or cells: E. coli
T1 sequence (Q8BH82 1-396): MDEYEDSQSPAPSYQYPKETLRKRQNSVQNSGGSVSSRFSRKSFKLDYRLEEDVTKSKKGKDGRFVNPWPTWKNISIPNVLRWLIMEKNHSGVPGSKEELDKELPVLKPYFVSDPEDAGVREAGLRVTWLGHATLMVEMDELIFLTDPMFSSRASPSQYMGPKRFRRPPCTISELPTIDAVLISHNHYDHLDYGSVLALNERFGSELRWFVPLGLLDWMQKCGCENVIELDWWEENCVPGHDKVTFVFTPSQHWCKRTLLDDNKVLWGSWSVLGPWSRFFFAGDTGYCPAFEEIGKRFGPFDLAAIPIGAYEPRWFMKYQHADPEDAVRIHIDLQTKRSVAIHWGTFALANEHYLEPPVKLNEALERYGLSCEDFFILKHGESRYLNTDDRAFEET
The experiment can be described thus: In vitro fluorescence NAPE-PLD activity assay (HTS/CRC) with recombinant mouse NAPE-PLD and PED-A1. Type of experiment: biochemical. The conditions noted are these: Table 3; read-out: In vitro EC50. Here is the method: Using the fluorogenic NAPE substrate, PED-A1, and recombinant mouse NAPE-PLD (rNAPE-PLD), an in vitro high-throughput (HTS) assay was conducted to screen ˜40,000 compounds for their ability to modulate NAPE-PLD activity. The HTS assay enabled the detection of both NAPE-PLD activators and inhibitors. […] Initial structure-activity response studies with the top hits identified benzothiazole phenylsulfonyl-piperidine carboxamide analogs (BT-PSP analogs) as lead compounds for NAPE-PLD activators (Table 1). The lead BT-PSP analog identified, VU534, induces 50% of its activation effect on NAPE-PLD at 270 nM (AC50 270 nM), and induces a maximal effect of 195% of basal NAPE-PLD activity (Table 1).
In vitro fluorescence NAPE-PLD activity assays using recombinant NAPE-PLD and either PED-A1 or flame-NAPE as fluorogenic substrate were performed as previously described except with small modifications as noted below. See Aggarwal et al., J. Biol. Chem. 295(21): 7289-7300 (2020); Zarrow et al., J. Lipid Res. 63(1): 100156 (2022).
For the HTS assays, test compounds were incubated with recombinant enzyme for 1 h prior to adding PED-A1 (final 0.4 μM) mixed with N-palmitoyl-dioleoyl-PE (final 3.6 μM) to adjust for the high sensitivity of the Panoptic instrument (WaveFront Biosciences). Assays used black-wall, clear-bottom, non-sterile, and non-treated 384-well plates (Greiner Bio-One 781906). The assay was read in kinetic fluorescence mode on the Panoptic instrument for 4 min and the slope of the signal from 30-100 s was used for analysis. A total of 39,328 compounds from the Vanderbilt Discovery Collection were tested, each at 10 μM. The tested compounds were chosen to represent a structurally diverse selection from the full library. Each 384-well plate included 320 test compound wells and 64 control wells. Unlike previous pilot screening assays, bithionol (10 μM final) was used in place of lithocholic acid (100 μM final) as the inhibitor control. Before performing high-throughput screening, a checkerboard assay was performed to validate the assay parameters. This yielded a Z′ score of 0.676. Z′ scores were also calculated for each plate during screening, and plates with scores <0.5 were re-run. The average Z′ across all screening plates was 0.52, and the total hit rate was 3.6%. B-scores were calculated from the initial slopes across each plate using WaveGuide software (WaveFront Biosiences). Modulator hits were defined as compounds with absolute B-scores of 3 or higher. The number of compounds in various B-score ranges were as follows: […], 12 compounds; −10 to −5, 221 compounds; −5 to −3, 770 compounds; −3 to 3, 37924 compounds; 3 to 4, 314 compounds; 4 to 6, 70 compounds; 6 to 10, 15 compounds. Activator hits with B-scores of >3 were selected for the replication assay and a selection of analogs of the activators.
Concentration response curve (CRC) experiments used the same assay conditions as the HTS assay, except that graded concentrations of each test compound were used, with total amount of vehicle (DMSO) kept constant. CRC experiments with purified recombinant mouse NAPE-PLD were performed on two separate days, with values from each day normalized to vehicle only controls on same plate, and then all normalized values from both days averaged together. CRC experiments with human NAPE-PLD represent value from only a single day, due to limited amounts of this recombinant enzyme.
Regarding `COc1ccc2nc(NC(=O)C3CCN(S(=O)(=O)c4ccc(F)cc4)CC3)sc2c1` [VU484], the EC50 turned out to be 2.6 µM.
Same read-out and setting: the value for `COc1cccc2sc(NC(=O)C3CCN(S(=O)(=O)c4ccc(F)cc4)CC3)nc12` [VU485] was 29 µM; that for `O=C(Nc1nc2ccccc2s1)C1CCN(S(=O)(=O)c2ccc(Cl)cc2)CC1` [VU541] was 3.3 µM.
The same measure, in the same setting: the value for `COc1ccc(S(=O)(=O)N2CCC(C(=O)Nc3nc4ccc(C)cc4s3)CC2)cc1` [VU601] was approximately 1 µM.

The same experiment, now with this note: Table 3; read-out: In vitro Emax (100% activity is baseline activity of vehicle only).
As for `COc1ccc2nc(NC(=O)C3CCN(S(=O)(=O)c4ccc(F)cc4)CC3)sc2c1` [VU484], the Emax was determined as 162%.
On to `COc1cccc2sc(NC(=O)C3CCN(S(=O)(=O)c4ccc(F)cc4)CC3)nc12` [VU485], for which the Emax turned out to be 232%.
Same read-out and setting: then `O=C(Nc1nc2ccccc2s1)C1CCN(S(=O)(=O)c2ccc(Cl)cc2)CC1` [VU541], with 153%; and `Cc1ccc(S(=O)(=O)N2CCC(C(=O)Nc3nc4ccc(Cl)cc4s3)CC2)cc1` [VU572], with approximately 349%; and `COc1ccc(S(=O)(=O)N2CCC(C(=O)Nc3nc4ccc(C)cc4s3)CC2)cc1` [VU601], with 171%.

The same experiment, now with this note: Table 4; maximal efficacy as fold increase in NAPE-PLD activity versus vehicle only.
On to `Cc1cc(F)ccc1S(=O)(=O)N1CCC(C(=O)Nc2nc3ccccc3s2)CC1` [VU205], for which the “Emax (95% Cl)” value was less than 1.2 fold.
On to `COc1ccc2nc(NC(=O)C3CCN(S(=O)(=O)c4ccc(F)cc4)CC3)sc2c1` [VU484], for which the “Emax (95% Cl)” value was 2.1 (2.0-2.2) fold.
Still for that read-out and setting: the value for `COc1cccc2sc(NC(=O)C3CCN(S(=O)(=O)c4ccc(F)cc4)CC3)nc12` [VU485] was 2.0 (1.8-4.0) fold; that for `COc1ccc(S(=O)(=O)N2CCC(C(=O)Nc3nc4ccc(C)cc4s3)CC2)cc1` [VU601] was 1.8 (1.8-1.9) fold.
